Values of other authors in patent US20260166159A1, “KRAS G12D DEGRADATION AGENT, AND PREPARATION METHOD AND USE THEREFOR” (LEADINGTAC PHARMACEUTICAL (SHAOXING) CO., LTD., priority 2022, published 2026).

Assays:
KRAS-G12D mutant cells = KRAS-G12D mutant cells versus wild-type tumor cells; cited from earlier work
[1] = test system: xenograft tumor models of both pancreatic cancer and colorectal cancer; conditions: cited from earlier work

Q: Which specificity (KRAS-G12D mutant cells) does the source give for C#Cc1c(F)ccc2cc(O)cc(-c3ncc4c(N5CC6CCC(C5)N6)nc(OC[C@@]56CCCN5C[C@H](F)C6)nc4c3F)c12 [MRTX1133] here?
A: more than 1000 times

Q: And the “inhibition in xenograft tumor models” value [1]?
A: Dose-dependent inhibition
